{"source": "patent US20070207989A1", "about": "“DITERPENE DERIVATIVES FOR THE TREATMENT OF CARDIOVASCULAR, CANCER AND INFLAMMATORY DISEASES” (SaviPu Pharmaceuticals, priority 2006, published 2007)", "key": {"endothelin receptor": {"test_system": "endothelin receptor", "conditions": "cited from earlier work"}, "ETB receptor": {"target": "T1, ETB receptor (Homo sapiens, UniProt P24530)", "T1 sequence (P24530 27-442)": "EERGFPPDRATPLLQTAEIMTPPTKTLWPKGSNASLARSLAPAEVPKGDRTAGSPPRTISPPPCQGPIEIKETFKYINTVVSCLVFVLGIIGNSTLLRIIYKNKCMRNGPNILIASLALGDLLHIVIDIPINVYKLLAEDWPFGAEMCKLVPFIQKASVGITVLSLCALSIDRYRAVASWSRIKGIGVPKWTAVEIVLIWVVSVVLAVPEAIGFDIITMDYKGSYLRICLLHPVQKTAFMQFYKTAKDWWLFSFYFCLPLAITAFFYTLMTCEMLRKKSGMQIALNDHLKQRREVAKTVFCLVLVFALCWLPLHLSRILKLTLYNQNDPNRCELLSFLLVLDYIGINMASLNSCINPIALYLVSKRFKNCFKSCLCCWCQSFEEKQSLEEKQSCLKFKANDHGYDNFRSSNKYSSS", "conditions": "cited from earlier work"}, "ETA receptor": {"target": "T2, ETA receptor (Homo sapiens, UniProt P25101)", "T2 sequence (P25101 21-427)": "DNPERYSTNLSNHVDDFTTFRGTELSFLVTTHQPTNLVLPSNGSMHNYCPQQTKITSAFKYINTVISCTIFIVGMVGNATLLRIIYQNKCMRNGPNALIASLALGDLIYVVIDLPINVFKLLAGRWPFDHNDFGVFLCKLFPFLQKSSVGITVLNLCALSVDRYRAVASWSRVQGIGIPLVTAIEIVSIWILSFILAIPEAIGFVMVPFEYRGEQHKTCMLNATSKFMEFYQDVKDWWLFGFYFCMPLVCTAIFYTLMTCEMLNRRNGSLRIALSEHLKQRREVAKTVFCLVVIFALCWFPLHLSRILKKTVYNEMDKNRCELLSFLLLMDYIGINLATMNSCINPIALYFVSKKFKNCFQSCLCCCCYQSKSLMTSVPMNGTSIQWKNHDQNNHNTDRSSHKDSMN", "conditions": "cited from earlier work"}, "carcinoma cell lines": {"test_system": "carcinoma cell lines", "conditions": "four cell lines; cited from earlier work"}, "[1]": {"target": "T3, endothelin receptor A (ETA) (Homo sapiens, UniProt P25101)", "T3 sequence (P25101 21-427)": "T2 sequence (P25101 21-427)", "test": "inhibition of endothelin receptor A (ETA)"}, "tumor cell lines": {"test_system": "tumor cell lines", "test": "inhibition of tumor cell lines", "format": "cell-based"}, "NF-κB [2]": {"test_system": "NF-κB", "conditions": "cited from earlier work"}, "NF-κB [3]": {"test_system": "NF-κB", "test": "inhibition of NF-κB / NF-κB binding to κB consensus DNA"}, "human cancer cell lines": {"test_system": "human cancer cell lines", "conditions": "cited from earlier work"}}, "data": [{"compound": "Cc1noc(NS(=O)(=O)c2cccc3c(N(C)C)cccc23)c1C", "note": "[BMS-1 82874]", "values": [{"measurement": "endothelin receptor antagonist activity / binding (in words)", "setting": "endothelin receptor", "result": "active"}]}, {"compound": "COc1cccc(Oc2c(NS(=O)(=O)c3ccc(C(C)(C)C)cc3)ncnc2OCCO)c1", "note": "[Ro-46-2005]", "values": [{"measurement": "endothelin receptor antagonist activity / binding (in words)", "setting": "endothelin receptor", "result": "orally active non-peptidic antagonist"}]}, {"compound": "CCCOc1ccc2c(c1)[C@@H](c1ccc(OC)cc1OCC(=O)O)[C@H](C(=O)O)[C@H]2c1ccc2c(c1)OCO2", "note": "[SB-209670]", "values": [{"measurement": "affinity for ETB receptor (concentration range in words)", "setting": "ETB receptor", "result": "nanomolar"}, {"measurement": "affinity for ETA receptor (concentration range in words)", "setting": "ETA receptor", "result": "subnanomolar"}]}, {"compound": "Cc1coc2c1C(=O)C(=O)c1c-2ccc2c1CCCC2(C)C", "note": "[compound 8, tanshinone IIA]", "values": [{"measurement": "potency against carcinoma cell lines (in words)", "setting": "carcinoma cell lines", "result": "lack significant activity"}, {"measurement": "inhibition of endothelin receptor A (ETA)", "setting": "[1]", "result": "modest inhibition"}, {"measurement": "inhibition of tumor cell lines", "setting": "tumor cell lines", "result": "modest inhibition"}, {"measurement": "blocking of NFκB binding to κB consensus DNA", "setting": "NF-κB [2]", "result": "block NFκB from binding to κB consensus DNA"}, {"measurement": "inhibition of NF-κB", "setting": "NF-κB [3]", "result": "modest inhibition"}]}, {"compound": "C=C1CCCc2c1ccc1c2C(=O)C(=O)c2c(C)coc2-1", "note": "[compound 9, methylene tanshinquinone]", "values": [{"measurement": "potency against carcinoma cell lines (in words)", "setting": "carcinoma cell lines", "result": "more potent than any of the tanshindiols"}]}, {"compound": "COC(=O)[C@@]1(C)CCCc2c1ccc1c2C(=O)C(=O)c2c(C)coc2-1", "note": "[compound 10, methyl tanshinonate]", "values": [{"measurement": "potency against carcinoma cell lines (in words)", "setting": "carcinoma cell lines", "result": "equally potent as the tanshindiols"}]}, {"compound": "Cc1coc2c1C(=O)C(=O)c1c-2ccc2c1CCCC2(C)CO", "note": "(centres unmarked) [compound 11, tanshinone IIB]", "values": [{"measurement": "potency against carcinoma cell lines (in words)", "setting": "carcinoma cell lines", "result": "very little activity"}]}, {"compound": "Cc1cccc2c1ccc1c3occ(C)c3c(=O)oc21", "note": "[compound 20, neo-tanshinlactone]", "values": [{"measurement": "potency relative to tamoxifen citrate", "setting": "human cancer cell lines; breast cancer, in some cases", "result": "ten times more potent"}, {"measurement": "selectivity relative to tamoxifen citrate", "setting": "human cancer cell lines; breast cancer, in some cases", "result": "twenty times more selective"}, {"measurement": "effectiveness against human cancer cell lines", "setting": "human cancer cell lines; several human cancer cell lines, particularly breast cancer", "result": "very effective"}]}, {"compound": "COc1cc(OC)nc(O[C@H](C(=O)O)C(OC)(c2ccccc2)c2ccccc2)n1", "note": "[darusentan]", "values": [{"measurement": "endothelin receptor antagonist activity / binding (in words)", "setting": "endothelin receptor", "result": "effective endothelin receptor antagonists"}]}, {"compound": "Cc1coc2c1C(=O)C(=O)c1c-2ccc2c(C)cccc12", "note": "[tanshinone 17]", "values": [{"measurement": "potency against carcinoma cell lines (in words)", "setting": "carcinoma cell lines", "result": "lack significant activity"}]}]}
